What all share (assay type): in vivo
Assay [1] deals with cattle. Put plainly: 2002-03 cattle feed test: raw ribeye steak Hunter Lab color evaluation. The source says:
(§1) Applicants also assessed the effects of antioxidant supplementation on beef quality in an experiment in which ground beef and steaks from cattle fed one of four dietary treatments were compared. Forty steers (average weight 1082 lbs.) were blocked by weight (heavy or light) and assigned to eight outdoor group pens. Pens were randomly assigned within weight blocks to four dietary treatments (two pens per dietary treatment): control, 300 ppm gamma-tocopherol, 150 ppm MT or 300 ppm MT. As in the swine and poultry feed trials, the MT supplement was obtained commercially from Fuji Chemical Industries (U.S.A.) Inc. of Robbinsville, N.J., and contained 7.5% alpha-, 12.3% gamma- and 3.0% delta-tocotrienol for a total MT content of 22.8 wt %, as well as 7.2% alpha-tocopherol. The control diet was not supplemented with even the NRC (1996) recommended level of vitamin E (15 to 60 ppm).
(§2) The steers were fed rolled corn diets with added cottonseed hulls that contained little or no vitamin E. The corn grain used in this trial was more than two years old so that it would be largely depleted of vitamin E. The steers were gradually adapted to an 80% grain-based diet and fed the low vitamin E diet for over one month prior to the start of the dietary supplementation period. Steers then were fed their respective dietary treatments for 54 days, starting Dec. 18, 2002 and ending Feb. 10, 2003.
(§3) The dietary treatments were top-dressed onto the feed and mixed with the morning daily feed. The target level for feeding gamma-tocopherol was calculated to be 2 g per animal per day. Mineral oil was used as a carrier for the gamma-tocopherol. The two target amounts of mixed tocotrienols were equivalent to, or half of, the gamma tocopherol level. The MT compounds were diluted with cornmeal to supply the required amount of mixed tocotrienols.
(§4) On the day following delivery of the beef rib sections to Kansas State University, ribs were boned out, vacuum packaged, and held at approximately (2° C.) until thirteen days postmortem, at which time the ribs were faced at the 13th rib region. The ribs were cut into 2.54 cm thick ribeye steaks, one steak from each rib to be used for color appraisal under retail display conditions and one steak for sensory evaluation. The steaks for sensory evaluation were vacuum-packaged and frozen.
(§5) The ribeye steaks utilized for color evaluation were placed onto 17S foam trays with meat, fish, and poultry pads (Dri-Loc AC-50) and wrapped with polyvinyl chloride film. The packaged steaks were placed under simulated retail display at 34±3° F. under 1614 lux (150±5 foot candles) light intensity in open-top display cases. The cases were programmed to defrost twice daily at 12-hour intervals. Case temperature was monitored using temperature recorders. An eight-member trained panel assigned subjective color and discoloration scores on days 0, 1, 2, 3, 4, 5 and 7. Pre-storage color was evaluated on an eight point scale. Panelists evaluated post-13 day storage color using a five-point scale with 0.5 intervals. Minolta color measurements were taken on days 0 and 7 using a Hunter Lab MiniScan™ Spectrophotometer (1.25 inch diameter aperture).

In assay [2] the test system is cattle. Put plainly: 2002-03 cattle feed test: raw ribeye steak subjective color. As to conditions: 300 ppm in diet.
From the text: as §1, §2, §3, §4, §5

Assay [3] relates to cattle. Put plainly: 2002-03 cattle feed test: moisture, fat and TBARS content of raw ground beef patties. As to conditions: 300 ppm in diet.
From the text: as §1, with “ppm). […]” for “ppm).”
(§6) The dietary treatments were top-dressed onto the feed and mixed with the morning daily feed. The target level for feeding gamma-tocopherol was calculated to be 2 g per animal per day. […]
Four pounds of lean and one pound of fat were harvested from each steer and mixed to produce ground beef patties with a targeted fat content of 20%. […] The pre- and post-display ground beef patties were analyzed for oxidative stability by determining their TBARS concentration.

For assay [4], the system named is cattle. Description: 2002-03 cattle feed test: TBARS content of raw ribeye steaks. As to conditions: 300 ppm in diet.
From the text: as §1, with “The control diet was not supplemented with even the NRC (1996) recommended level of vitamin E (15 to 60 ppm).” left out
as §6
The ribeye steaks utilized for color evaluation were placed onto 17S foam trays with meat, fish, and poultry pads (Dri-Loc AC-50) and wrapped with polyvinyl chloride film. […] Case temperature was monitored using temperature recorders. […] Pre-storage color was evaluated on an eight point scale. Panelists evaluated post-13 day storage color using a five-point scale with 0.5 intervals. […]

The test system of assay [5] is cattle. Put plainly: 2002-03 cattle feed test: sensory characteristics of cooked ribeye steaks. As to conditions: freshly cooked ribeye steaks; scale of 1 to 8; 300 ppm in diet.
From the text: as §1, §2, §3, §4
The frozen ribeye steaks designated for sensory evaluation were thawed for >24 hours at 3-4° C. and cooked in a Blodgett oven set at 163° C. The steaks were turned at 40° C. and removed from the oven at 70° C. The cooked steaks were cut into 2.54 cm×1.25 cm×1.25 cm cubes. The cubes were placed in double boilers and held warm on burners set at 107° C. until serving. Each panelist received two cubes in random order with a maximum of eight samples per session. An eight-point scale with 0.5 increments was used to score sensory attributes, with 8 being most tender, flavorful, or juicy and 1 being the least tender, flavorful, or juicy.

Marks after values point to notes of the source that are not given here.

For the molecule `Cc1c(O)cc2c(c1C)O[C@](C)(CCC[C@H](C)CCC[C@H](C)CCCC(C)C)CC2` [GT, gamma-tocopherol], the “Pre-display pH” value with cattle [1] (300 ppm in diet) is given as 5.53. The “Hunter L” value in the assay on cattle [1] (display Day 0, 300 ppm in diet) is recorded as 41.35; in the assay with cattle [1] (display Day 7, 300 ppm in diet), 40.03^b. For the same molecule, the Hunter a in the assay on cattle [1] (display Day 0, 300 ppm in diet) was 32.82; with cattle [1] (display Day 7, 300 ppm in diet), 30.26^b. Besides, the Hunter b in the assay on cattle [1] (display Day 0, 300 ppm in diet) was 25.33; in the assay on cattle [1] (display Day 7, 300 ppm in diet), 23.35^b. The subjective color score in the assay on cattle [2] (Pre-storage, eight point scale (1.0 = Bleached red, 8.0 = Very dark red)) was 4.34; in the assay with cattle [2] (post-13 day storage, display Day 0, five-point scale (1.0 = Very bright cherry red, 5.0 = Very dark red/purple to brown)), 2.19; in the assay on cattle [2] (post-13 day storage, display Day 1, five-point scale) it was 2.28; in the assay on cattle [2] (post-13 day storage, display Day 2, five-point scale), 2.29; in the assay on cattle [2] (post-13 day storage, display Day 3, five-point scale), 2.61; in the assay with cattle [2] (post-13 day storage, display Day 4, five-point scale), 2.80^b. Also, the subjective color score is 3.02^b with cattle [2] (post-13 day storage, display Day 5, five-point scale) and 3.29^b in the assay on cattle [2] (post-13 day storage, display Day 7, five-point scale). Further, the TBARS content with cattle [3] (Post-display (5 days retail display)) is 0.663^ab Mg Malonaldehyde/1000 g ground beef; with cattle [3] (Pre-display) it was 0.173 Mg Malonaldehyde/1000 g ground beef; in the assay with cattle [4] (Post-display), 0.411^b Mg Malonaldehyde/1000 g steak; with cattle [4] (Pre-display) it was 0.076 Mg Malonaldehyde/1000 g steak. For the same molecule, in the assay on cattle [5], the Flavor intensity was 5.9. Further, the Juiciness in the assay on cattle [5] amounted to 5.7. This molecule showed an Off-flavor intensity in the assay on cattle [5] of 7.7. For the same molecule, the Overall tenderness with cattle [5] is given as 6.1^a. Also, the Warmed over flavor in the assay with cattle [5] was 8.0.
